# Results from PubChem BioAssay (NCI).
#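 1) Cells in 96-well plates. 2) Compound, 48 h, 5 concentrations. 3) Linear interpolation between surrounding doses. 4) Unreached endpoint = highest concentration. At the TGI there is no net growth.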
# Assays:
# Experiment in all cases: growth of human tumour cells (NCI), 48 h
# 786-0 renal = test system: 786-0 renal
# A549 NSCLC = test system: A549 NSCLC
# ACHN renal = test system: ACHN renal
# BT-549 breast = test system: BT-549 breast
# CAKI-1 renal = test system: CAKI-1 renal
# CCRF-CEM leukemia = test system: CCRF-CEM leukemia
# COLO 205 colon = test system: COLO 205 colon
# EKVX NSCLC = test system: EKVX NSCLC
# HCC-2998 colon = test system: HCC-2998 colon
# HCT-116 colon = test system: HCT-116 colon
# HCT-15 colon = test system: HCT-15 colon
# HOP-62 NSCLC = test system: HOP-62 NSCLC
# HS 578T breast = test system: HS 578T breast
# HT29 colon = test system: HT29 colon
# IGROV1 ovarian = test system: IGROV1 ovarian
# K-562 leukemia = test system: K-562 leukemia
# KM12 colon = test system: KM12 colon
# LOX IMVI melanoma = test system: LOX IMVI melanoma
# M14 melanoma = test system: M14 melanoma
# MALME-3M melanoma = test system: MALME-3M melanoma
# MCF7 breast = test system: MCF7 breast
# MDA-MB-231 breast = test system: MDA-MB-231 breast
# MDA-MB-435 = test system: MDA-MB-435
# MDA-N = test system: MDA-N
# MOLT-4 leukemia = test system: MOLT-4 leukemia
# NCI-H226 lung = test system: NCI-H226 lung
# NCI-H23 lung = test system: NCI-H23 lung
# NCI-H460 lung = test system: NCI-H460 lung
# NCI-H522 lung = test system: NCI-H522 lung
# NCI/ADR-RES ovarian = test system: NCI/ADR-RES ovarian
# OVCAR-3 ovarian = test system: OVCAR-3 ovarian
# OVCAR-4 ovarian = test system: OVCAR-4 ovarian
# OVCAR-5 ovarian = test system: OVCAR-5 ovarian
# OVCAR-8 ovarian = test system: OVCAR-8 ovarian
# PC-3 prostate = test system: PC-3 prostate
# RPMI-8226 leukemia = test system: RPMI-8226 leukemia
# SF-268 CNS = test system: SF-268 CNS
# SF-295 CNS = test system: SF-295 CNS
# SF-539 CNS = test system: SF-539 CNS
# SK-MEL-2 melanoma = test system: SK-MEL-2 melanoma
# SK-MEL-28 melanoma = test system: SK-MEL-28 melanoma
# SK-MEL-5 melanoma = test system: SK-MEL-5 melanoma
# SK-OV-3 ovarian = test system: SK-OV-3 ovarian
# SN12C renal = test system: SN12C renal
# SNB-19 CNS = test system: SNB-19 CNS
# SNB-75 CNS = test system: SNB-75 CNS
# SR leukemia = test system: SR leukemia
# SW-620 colon = test system: SW-620 colon
# T-47D breast = test system: T-47D breast
# U251 CNS = test system: U251 CNS
# UACC-257 melanoma = test system: UACC-257 melanoma
# UACC-62 melanoma = test system: UACC-62 melanoma
# UO-31 renal = test system: UO-31 renal
# DU-145 prostate = test system: DU-145 prostate
# HL-60(TB) leukemia = test system: HL-60(TB) leukemia
# HOP-92 NSCLC = test system: HOP-92 NSCLC
# RXF 393 renal = test system: RXF 393 renal
# TK-10 renal = test system: TK-10 renal
compound,measurement,setting,value
Cc1csc2nc3[nH]ncc3c(=O)n12,TGI,786-0 renal,> 100 µM
same,TGI,A549 NSCLC,> 100 µM
same,TGI,ACHN renal,> 100 µM
same,TGI,BT-549 breast,> 100 µM
same,TGI,CAKI-1 renal,> 100 µM
same,TGI,CCRF-CEM leukemia,> 100 µM
same,TGI,COLO 205 colon,> 100 µM
same,TGI,EKVX NSCLC,> 100 µM
same,TGI,HCC-2998 colon,> 100 µM
same,TGI,HCT-116 colon,> 100 µM
same,TGI,HCT-15 colon,> 100 µM
same,TGI,HOP-62 NSCLC,> 100 µM
same,TGI,HS 578T breast,> 100 µM
same,TGI,HT29 colon,> 100 µM
same,TGI,IGROV1 ovarian,> 100 µM
same,TGI,K-562 leukemia,> 100 µM
same,TGI,KM12 colon,> 100 µM
same,TGI,LOX IMVI melanoma,> 100 µM
same,TGI,M14 melanoma,> 100 µM
same,TGI,MALME-3M melanoma,> 100 µM
same,TGI,MCF7 breast,> 100 µM
same,TGI,MDA-MB-231 breast,> 100 µM
same,TGI,MDA-MB-435,> 100 µM
same,TGI,MDA-N,> 100 µM
same,TGI,MOLT-4 leukemia,> 100 µM
same,TGI,NCI-H226 lung,> 100 µM
same,TGI,NCI-H23 lung,> 100 µM
same,TGI,NCI-H460 lung,> 100 µM
same,TGI,NCI-H522 lung,> 100 µM
same,TGI,NCI/ADR-RES ovarian,> 100 µM
same,TGI,OVCAR-3 ovarian,> 100 µM
same,TGI,OVCAR-4 ovarian,> 100 µM
same,TGI,OVCAR-5 ovarian,> 100 µM
same,TGI,OVCAR-8 ovarian,> 100 µM
same,TGI,PC-3 prostate,> 100 µM
same,TGI,RPMI-8226 leukemia,> 100 µM
same,TGI,SF-268 CNS,> 100 µM
same,TGI,SF-295 CNS,> 100 µM
same,TGI,SF-539 CNS,> 100 µM
same,TGI,SK-MEL-2 melanoma,> 100 µM
same,TGI,SK-MEL-28 melanoma,> 100 µM
same,TGI,SK-MEL-5 melanoma,> 100 µM
same,TGI,SK-OV-3 ovarian,> 100 µM
same,TGI,SN12C renal,> 100 µM
same,TGI,SNB-19 CNS,> 100 µM
same,TGI,SNB-75 CNS,> 100 µM
same,TGI,SR leukemia,> 100 µM
same,TGI,SW-620 colon,> 100 µM
same,TGI,T-47D breast,> 100 µM
same,TGI,U251 CNS,> 100 µM
same,TGI,UACC-257 melanoma,> 100 µM
same,TGI,UACC-62 melanoma,> 100 µM
same,TGI,UO-31 renal,> 100 µM
COc1cc(-c2oc(C=Nc3ccccc3)c([N+](=O)[O-])c2-c2ccc(O)c(OC)c2)ccc1O,TGI,786-0 renal,> 58.3 µM
same,TGI,A549 NSCLC,> 87.2 µM
same,TGI,ACHN renal,32 µM
same,TGI,BT-549 breast,> 100 µM
same,TGI,CAKI-1 renal,47.2 µM
same,TGI,CCRF-CEM leukemia,> 100 µM
same,TGI,COLO 205 colon,> 63.2 µM
same,TGI,DU-145 prostate,53.3 µM
same,TGI,EKVX NSCLC,> 73.9 µM
same,TGI,HCC-2998 colon,30.5 µM
same,TGI,HCT-116 colon,> 68.5 µM
same,TGI,HCT-15 colon,42.3 µM
same,TGI,HL-60(TB) leukemia,4.28 µM
same,TGI,HOP-62 NSCLC,> 100 µM
same,TGI,HOP-92 NSCLC,> 51.9 µM
same,TGI,HS 578T breast,> 100 µM
same,TGI,HT29 colon,> 55.9 µM
same,TGI,IGROV1 ovarian,52.5 µM
same,TGI,K-562 leukemia,> 100 µM
same,TGI,KM12 colon,> 85.4 µM
same,TGI,LOX IMVI melanoma,> 100 µM
same,TGI,M14 melanoma,> 100 µM
same,TGI,MCF7 breast,> 100 µM
same,TGI,MDA-MB-231 breast,> 95.7 µM
same,TGI,MDA-MB-435,> 85.9 µM
same,TGI,MDA-N,> 85.7 µM
same,TGI,MOLT-4 leukemia,> 84.7 µM
same,TGI,NCI-H226 lung,> 100 µM
same,TGI,NCI-H23 lung,33.9 µM
same,TGI,NCI-H460 lung,35.5 µM
same,TGI,NCI-H522 lung,30.2 µM
same,TGI,NCI/ADR-RES ovarian,> 68.1 µM
same,TGI,OVCAR-3 ovarian,> 100 µM
same,TGI,OVCAR-4 ovarian,67.8 µM
same,TGI,OVCAR-5 ovarian,> 89.6 µM
same,TGI,OVCAR-8 ovarian,> 54.9 µM
same,TGI,PC-3 prostate,> 64.5 µM
same,TGI,RPMI-8226 leukemia,72.4 µM
same,TGI,RXF 393 renal,51.1 µM
same,TGI,SF-268 CNS,73.7 µM
same,TGI,SF-295 CNS,> 95.7 µM
same,TGI,SF-539 CNS,42.9 µM
same,TGI,SK-MEL-2 melanoma,> 100 µM
same,TGI,SK-MEL-28 melanoma,68.7 µM
same,TGI,SK-MEL-5 melanoma,> 79.5 µM
same,TGI,SK-OV-3 ovarian,> 64.7 µM
same,TGI,SN12C renal,> 74.4 µM
same,TGI,SNB-19 CNS,80.1 µM
same,TGI,SNB-75 CNS,64.4 µM
same,TGI,SR leukemia,9.8 µM
same,TGI,SW-620 colon,> 85.3 µM
same,TGI,T-47D breast,> 100 µM
same,TGI,TK-10 renal,39.5 µM
same,TGI,U251 CNS,66.1 µM
same,TGI,UACC-257 melanoma,> 73.6 µM
same,TGI,UACC-62 melanoma,47.2 µM
same,TGI,UO-31 renal,29.6 µM
